Results taken from patent publication US20260008757A1, “N-(3-(AMINOMETHYL)-PHENYL)-5-(4-PHENYL)-5-(TRIFLUOROMETHYL)-4,5-DIHYDROISOXAZOL-3-AMINE DERIVATIVES AND SIMILAR COMPOUNDS AS PESTICIDES” (BASF SE, priority 2022, published 2026).

Tests used:
Assay type in all cases: in vivo
Anthonomus grandis = experiment: Boll weevil (Anthonomus grandis) egg and larval mortality, microtiter plate diet test; settings: 120 h, egg and larval mortality after 5 days, read-out: mortality in comparison with untreated controls
Description: For evaluating control of boll weevil, the test unit consisted of 96-well-microtiter plates containing an insect diet and 5-10 A. grandis eggs.
The compounds were formulated using a solution containing 75% v/v water and 25% v/v DMSO. Different concentrations of formulated compounds were sprayed onto the insect diet at 5 μl, using a custom-built micro atomizer, at two replications.
After application, microtiter plates were incubated at about 25±1° C. and about 75±5% relative humidity for 5 days. Egg and larval mortality were then visually assessed.

Myzus persicae = experiment: Green Peach Aphid (Myzus persicae), mixed life stages, systemic artificial diet test; settings: 72 h, aphid mortality after 3 days, read-out: mortality in comparison with untreated controls
Text: For evaluating control of Green Peach Aphid through systemic means the test unit consisted of 96-well-microtiter plates containing liquid artificial diet under an artificial membrane. The compounds were formulated using a solution containing 75% v/v water and 25% v/v DMSO. Different concentrations of formulated compounds were pipetted into the aphid diet, using a custom-built pipette, at two replications. After application, 5-8 adult aphids were placed on the artificial membrane inside the microtiter plate wells. The aphids were then allowed to suck on the treated aphid diet and incubated at about 23±1° C. and about 50±5% relative humidity for 3 days. Aphid mortality and fecundity was then visually assessed.

Heliothis virescens = experiment: Tobacco Budworm (Heliothis virescens) egg and larval mortality, microtiter plate diet test; settings: 120 h, egg and larval mortality after 5 days, read-out: mortality in comparison with untreated controls
Description: For evaluating control of Tobacco Budworm, the test unit consisted of 96-well-microtiter plates containing an insect diet and 15-25 H. virescens eggs. The compounds were formulated using a solution containing 75% v/v water and 25% v/v DMSO. Different concentrations of formulated compounds were sprayed onto the insect diet at 10 μl, using a custom-built micro atomizer, at two replications. After application, microtiter plates were incubated at about 28±1° C. and about 80±5% relative humidity for 5 days. Egg and larval mortality was then visually assessed.

[1] = test system: Frankliniella occidentalis; experiment: Western Flower Thrips (Frankliniella occidentalis) mortality on treated cotton leaf discs, comparative experiment; settings: foliar, 48 h, thrips mortality at 2 DAT, read-out: mortality in comparison with untreated controls
Description: The active compounds were formulated by a Tecan liquid handler in 100% cyclohexanone as a 10,000 ppm solution supplied in tubes. The 10,000 ppm solution was serially diluted in 100% cyclohexanone to make interim solutions. These served as stock solutions for which final dilutions were made by the Tecan in 50% acetone:50% water (v/v) into 10 or 20 ml glass vials. A nonionic surfactant (Kinetic®) was included in the solution at a volume of 0.01% (v/v). The vials were then inserted into an automated electrostatic sprayer equipped with an atomizing nozzle for application to plants/insects. Small (˜2″ in height) cotton plants were sprayed with test compounds at concentrations ranging from 300 to 0.01 ppm in acetone/water through the automated VPS. After drying, cotton leaves were removed, and circular leaf discs (˜1 cm diameter) were punched from the treated surface and transferred to clean 20 mL scintillation vials. Ten Western flower thrips (FRANOC) were aspirated into each scintillation vial. The vials with the leaf discs and thrips were kept in an upright incubator at 25° C. and 50% relative humidity with a 14:10 light:dark photoperiod. Each treatment was replicated twice. Thrips mortality was assessed at 2 DAT (days after treatment), counting all thrips both dead and alive.

Spodoptera eridania = experiment: Southern Armyworm (Spodoptera eridania), 2nd instar larvae, on sprayed lima bean plants, comparative experiment; settings: 96 h, 4 days after treatment, read-out: mortality in comparison with untreated controls
Description: The active compounds were formulated by a Tecan liquid handler in 100% cyclohexanone as a 10,000-ppm solution supplied in tubes. The 10,000-ppm solution was serially diluted in 100% cyclohexanone to make interim solutions. These served as stock solutions for which final dilutions were made by the Tecan in 50% acetone:50% water (v/v) into 10 or 20 ml glass vials. A nonionic surfactant (Kinetic®) was included in the solution at a volume of 0.01% (v/v). The vials were then inserted into an automated electrostatic sprayer equipped with an atomizing nozzle for application to plants/insects. Lima bean plants (variety Sieva) were grown 2 plants to a pot and selected for treatment at the 1st true leaf stage. Test solutions were sprayed onto the foliage by an auto-mated electrostatic plant sprayer equipped with an atomizing spray nozzle. The plants were dried in the sprayer fume hood and then removed from the sprayer. Each pot was placed into perforated plastic bags with a zip closure. Ten to 11 armyworm larvae were placed into the bag and the bags zipped closed. Test plants were maintained in a growth room at about 25° C. and about 20-40% relative humidity for 4 days, avoiding direct exposure to fluorescent light (14:10 light:dark photoperiod) to prevent trapping of heat inside the bags. Mortality and reduced feeding were assessed 4 days after treatment, compared to untreated control plants.

SMILES	mortality at 800 ppm (Anthonomus grandis)	mortality at 800 ppm (Myzus persicae)	mortality at 800 ppm (Heliothis virescens; 800 ppm)	mortality at 2500 ppm (Heliothis virescens; 2500 ppm)	mortality at 100 ppm [1]	mortality at 1 ppm (Spodoptera eridania)
O=C(NCc1cc(NC2=NOC(c3cc(Cl)cc(Cl)c3)(C(F)(F)F)C2)ccc1F)C1CC1 (centres unmarked) [I-8]	≥ 75%	≥ 75%	≥ 75%	≥ 75%	100%	80%
N#CC1(NC(=O)c2cc(NC3=NOC(c4cc(Cl)cc(Cl)c4)(C(F)(F)F)C3)ccc2F)CC1 (centres unmarked) [I-30 of WO2022/171472, reference compound]	–	–	–	–	19%	0%
